Laboratory results taken from paper PMC10218348 (International Journal of Molecular Sciences, 2023).
Like-named read-outs stand apart in the source and are kept apart here.

What was measured:
[1] = target: T1, rhodesain (Trypanosoma brucei rhodesiense, UniProt Q95PM0); assay: Drug combination study against rhodesain (Chou-Talalay, Median Effect Plot, combination index); format: biochemical; settings: combination at molar ratio 1:70
T1 construct: TEV cleavage site (C); GFP (C); hexahistidine-tag (6xHis) (C); made in house
T1 sequence (Q95PM0 entry or part of it): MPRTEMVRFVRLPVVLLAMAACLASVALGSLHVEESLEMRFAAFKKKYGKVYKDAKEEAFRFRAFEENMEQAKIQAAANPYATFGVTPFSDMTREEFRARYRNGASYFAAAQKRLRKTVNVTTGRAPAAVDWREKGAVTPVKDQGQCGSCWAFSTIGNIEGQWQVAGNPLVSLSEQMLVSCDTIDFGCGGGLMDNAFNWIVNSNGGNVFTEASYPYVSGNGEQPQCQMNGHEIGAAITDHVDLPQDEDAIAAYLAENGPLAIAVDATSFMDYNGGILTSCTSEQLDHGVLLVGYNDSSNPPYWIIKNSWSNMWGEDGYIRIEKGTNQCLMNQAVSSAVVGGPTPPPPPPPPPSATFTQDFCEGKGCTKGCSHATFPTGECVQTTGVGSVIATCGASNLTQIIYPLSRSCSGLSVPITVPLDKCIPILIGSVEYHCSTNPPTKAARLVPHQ
Excerpt: In the median effect plot, the maximum response corresponds to 1 instead of 100 in the dose-response curve. Therefore, fa + fu = 1, where fa corresponds to the “affected fraction”, i.e., the percentage of enzyme that has been inhibited, while fu is the unaffected fraction, i.e., the residual enzyme activity. The slope of the straight line of each Median Effect Plot is the “m value”.
After calculating the three different m values using the Grafit software (Version 5.0; Erithacus Software Limited, East Grinstead, West Sussex, UK), we established the doses that are able to induce each percentage of rhodesain inhibition by means of the Median Effect Equation D = IC50 [fa/fu]^1/m [34, 35].
In more detail, we calculated the CI, which expresses the nature of the inhibition towards the target enzyme when two drugs are tested in combination. […]
Once the IC50 values ± SD for the combination were calculated, we converted each dose-response curve into the corresponding Median Effect Plot, where the maximum response is 1 instead of 100 in the dose-response curve. […]
Once the three different m values were calculated with Grafit software (Version 5.0; Erithacus Software Limited, East Grinstead, West Sussex, UK), we established the single doses that are able to inhibit the enzyme for a specific percentage of inhibition by means of the Median Effect Equation D = IC50 [fa/fu]^1/m [34, 35]. […]

[2] = target: T1, rhodesain; settings: cited from earlier work
[3] = target: human Cathepsin L (hCatL) (Homo sapiens, UniProt P07711); assay: Cathepsin L inhibition, fluorescence-based assay (Cbz-Phe-Arg-AMC); format: biochemical; settings: for Ki: Cheng-Prusoff, substrate Cbz-Phe-Arg-AMC 5 µM, KM 6.5 µM; for inhibition at 20 µM: 20 µM inhibitor, read-out: hCatL inhibition, initial screening; for Selectivity Index (SI): human cathepsin L vs rhodesain
Sequence of human Cathepsin L (hCatL) (P07711 114-333): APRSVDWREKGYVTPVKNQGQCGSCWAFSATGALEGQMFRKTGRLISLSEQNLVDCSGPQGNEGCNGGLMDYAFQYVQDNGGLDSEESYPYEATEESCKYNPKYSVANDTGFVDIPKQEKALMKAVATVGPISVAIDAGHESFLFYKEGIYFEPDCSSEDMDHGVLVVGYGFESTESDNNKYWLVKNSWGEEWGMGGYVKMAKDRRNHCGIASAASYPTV
Protocol: The determination of the activity of the inhibition against human Cathepsin L (hCatL) was performed in fluorescence-based assays. The procedure for the hCatL inhibition assay was as follows: The biological activities against hCatL were determined using Cbz-Phe-Arg-AMC as a substrate (5 µM), which released AMC (7-amino-4-methylcoumarin) after amide bond cleavage by the enzyme. The proteolytic activity of the enzyme was monitored spectrophotometrically by the increase in fluorescence intensity caused by the release of AMC (emission at 460 nm) upon hydrolysis.
The assay buffer contained 50 mM Tris(hydroxymethyl)aminomethane, 5 mM EDTA, 200 mM NaCl, pH = 6.5, and 0.005% Brij 35 to avoid aggregation and false-positive results. The enzyme buffer contained 2 mM DTT rather than Brij 35.
Inhibitor solutions were prepared from stocks of DMSO.
CD34 and CD24 were then tested separately by Tian continuous assays, twice in duplicate in 96-well plates, for a total volume of 200 µL. An equivalent amount of DMSO was used as negative control. In more detail, we used 0.001 µM, 0.01 µM, 0.05 µM, 0.1 µM, 0.5 µM, 1 µM, and 10 µM for CD34 and CD24. The residual enzyme activities were determined continuously over a period of 10 min at room temperature.
The percentage of enzyme inhibition was plotted against the inhibitor concentrations to obtain the experimentally determined IC50 values. The inhibitory constants (Ki) were calculated according to the Cheng–Prusoff Equation (1), with KM = 6.5 µM for Cbz-Phe-Arg-AMC.

[4] = target: T1, rhodesain; assay: Rhodesain inhibition, Tian continuous fluorogenic assay (Cbz-Phe-Arg-AMC); format: biochemical
Protocol: CD34 was tested against recombinant rhodesain by using Cbz-Phe-Arg-AMC as a fluorogenic substrate. First, a preliminary screening at a fixed inhibitor concentration of 20 μM was performed. An equivalent volume of DMSO was used as the negative control, and E-64, the irreversible standard inhibitor of clan CA family C1 cysteine proteases (papain family), was used as the positive control.
An equivalent amount of DMSO was used as negative control. Product release from substrate hydrolysis (Cbz-Phe-Arg-AMC, 10 µM) was determined continuously over a period of 10 min at room temperature. The assay buffer contained 50 mM sodium acetate, pH = 5.5, 5 mM EDTA, 200 mM NaCl, and 0.005% Brij 35 to avoid aggregation and false-positive results. The enzyme buffer contained 5 mM DTT rather than Brij 35. Inhibitor solutions were prepared from stocks of DMSO.
Fluorescence of the product AMC of the substrate hydrolyses was measured using an Infinite 200 PRO microplate reader (Tecan, Männedorf, Switzerland) at room temperature with a 380 nm excitation filter and a 460 nm emission filter. Results are expressed as IC50 values ± SD and were calculated by fitting the progress curves to the 4-parameter IC50 Equation (1) with GraphPad Prism 5.0.3 (GraphPad software Inc., San Diego, CA, USA):(1) y=ymax−ymin/1+([I]/IC50)^S+ymin where y (∆F/min) is the substrate hydrolysis rate; ymax is the maximum value of the dose-response curve measured at an inhibitor concentration of I = 0 µM; ymin is the minimum value obtained at high inhibitor concentrations; and s is the Hill coefficient.

[5] = cited from earlier work
[6] = system: parasite (Trypanosoma); set-up: method as in PMID 35385806; settings: read-out: EC50 antiparasitic activity; cited from earlier work

COc1cc(/C=C/C(=O)CC(=O)/C=C/c2ccc(O)c(OC)c2)ccc1O [curcumin]
m value (slope of Median Effect Plot) [1]: 0.9455
Type of rhodesain inhibition [2]: non-competitive

CC(C)C[C@H](NC(=O)[C@H]1O[C@@H]1C(=O)O)C(=O)NCCCCN=C(N)N [E-64]
Ki [3]: 30 ± 3 nM
Ki ([4]; Cheng-Prusoff from IC50, substrate Cbz-Phe-Arg-AMC 10 µM, KM 0.8 µM, read-out: Ki (nM) Rhodesain): 13 ± 0.2 nM

Nc1nc(N)nc(Nc2ccc([As]3SCC(CO)S3)cc2)n1 (stereo not drawn) [melarsoprol]
Encephalopathy in treated patients [5]: 5–10%

N#C[C@H](CCc1ccccc1)NC(=O)[C@H](Cc1ccccc1)NC(=O)c1cc(F)cc(F)c1 [CD34, N-((S)-1-((S)-1-Cyano-3-phenylpropylcarbamoyl)-2-phenylethyl)-3,5-difluorobenzamide]
m value (slope of Median Effect Plot) [1]: 1.0006
inhibition at 20 µM [3]: > 80%
Ki [3]: 196 ± 22 nM
Selectivity Index (SI) [3]: 7.26
IC50 [4]: 0.35 µM
Ki [4]: 27 ± 2.7 nM
Type of rhodesain inhibition [4]: reversibly inhibited
Rhodesain inhibition, preliminary screening ([4]; 20 µM inhibitor): full inhibition
inhibition at 20 µM ([4]; read-out: Rhodesain inhibition, preliminary screening): > 80%

CC(C)C[C@H](NC(=O)c1cccc(F)c1)C(=O)N[C@H](C#N)CCc1ccccc1 [CD24]
inhibition at 20 µM [3]: > 80%
Ki [3]: 34 ± 0.1 nM
Selectivity Index (SI) [3]: 2.12
EC50 [6]: 10.1 ± 0.5 µM
